System: SAM-P1 male mice (mice of senescence-accelerated model)
Assay: Maximum force of soleus muscle under electrical stimulation in senescence-accelerated mice
Assay type: in vivo, mouse
Details: after breeding for 9 weeks
Experimental: Thereafter, these mice were divided into the following groups (eight mice in each group): […] The mice of each group were subjected to a physical exercise at 10 m/min for 3 minutes in a running-water pool five times a day and four days a week. After breeding for nine weeks, a soleus muscle was removed from a mouse of each group through dissection and fixed to a transducer (FORT100, product of World Precision Instruments, Inc.) in Krebs solution of 37° C. (aeration: 95%-oxygen, 5%-carbon dioxide). Subsequently, under electrical stimulation (0.5 msec, 140 Hz), the maximum muscle force of the muscle sample was determined.

CC(C)C[C@H](N)C(=O)O [leucine, Leucine]
Maximum soleus muscle force compared with SAM-P1 control group (Dunnet test): No significant difference
Maximum muscle force (soleus muscle, electrical stimulation 0.5 msec 140 Hz, diet 0.35% of each ingredient): 11.1 ± 0.7 g

From patent US20090281174A1, “SENESCENCE INHIBITOR” (KAO CORPORATION, priority 2006, published 2009)
